Data reported in US11980631B2, “β-lactamase inhibitors” (priority 2017, dated 2024).
Entries after “also recorded” stand apart in the source; their conditions may differ.

Key:
S. maltophilia = assay: microbe, parasite or virus in culture; type: cell-based, Stenotrophomonas maltophilia; settings: inhibitor at 2 mg/L; for ability to potentiate β-lactams / reverse resistance (in words): β-lactam and strain named in the value
Experimental: S. maltophilia clinical isolates were K279a, a well characterised isolate from Bristol, UK, or were obtained from the SENTRY antimicrobial resistance survey, as previously reported. […] All growth media were from Oxoid. Chemicals were from Sigma, unless otherwise stated.
Susceptibility to β-lactams in bacterial isolates was determined using the CLSI microtitre minimum inhibitory concentration (MIC) methodology with Muller-Hinton Broth using 96 well plates (Corning, Costar). The MIC was determined as the lowest concentration of β-lactam required to entirely suppress growth. Inhibitor concentrations were kept constant at 2 mg/L or 10 mg/L in all assays. Interpretation of susceptibility/resistance was by reference to CLSI clinical breakpoints for S. maltophilia (ceftazidime) and for Pseudomonas aeruginosa (for aztreonam and meropenem, since no S. maltophilia breakpoints are available).

[1] = tested on: L1 β-lactamase production in S. maltophilia K279a; assay: L1 β-lactamase induction by β-lactamase inhibitors (meropenem hydrolysis in cell extracts); type: cell-based; settings: 50 μg.mL^−1 inducer
Experimental: L1 activity was measured from the cell extracts in a 96-well plate reader by determining meropenem hydrolysis (100 μM) at λ=300 nm. Protein concentration was determined by using BioRad protein assay dye reagent. Specific activity was calculated by using the extinction coefficient of 9600 AU/M/cm and a pathlength correction for the microplate ([…]). Data presented are means +/−SEM, n=3.
Cultures were grown overnight using nutrient broth and used to inoculate (1:100 dilution) 10 ml nutrient broth cultures in sealed 30 ml universal bottles. Cultures were incubated for 2 h with shaking at 37° C. before test inducers were added, or not, and culture was continued for 2 h. Cells were pelleted by centrifugation (4,000×g, 10 min) and pellets treated with 100 μL of BugBuster (Ambion), pipetting up and down a few times before rocking for 10 min at room temperature. […] Protein concentration was determined using the BioRad protein assay reagent concentrate according to the manufacturer's instructions. L1 β-lactamase activity was determined using an Omega Fluostar (BMG Biotech) using meropenem as substrate in half-area 96 well UV-translucent plates (Greiner UV-Star. Bio-one) with 200 μl of 100 μM meropenem solution in assay buffer (60 mM Na2HPO4.7H2O pH 7.0, 40 mM NaH2PO4.H2O, 10 mM KCI, 1 mM MgSO4.7H2O, 100 μM ZnCl2) plus 10 μL of cell extract. […]

L2 = L2 (Stenotrophomonas maltophilia (Pseudomonas maltophilia) (Xanthomonas maltophilia), UniProt P96465); assay: Inhibition of purified L2, fluorogenic substrate FC5 as reporter
L2, sequence (P96465 36-303 limits assumed): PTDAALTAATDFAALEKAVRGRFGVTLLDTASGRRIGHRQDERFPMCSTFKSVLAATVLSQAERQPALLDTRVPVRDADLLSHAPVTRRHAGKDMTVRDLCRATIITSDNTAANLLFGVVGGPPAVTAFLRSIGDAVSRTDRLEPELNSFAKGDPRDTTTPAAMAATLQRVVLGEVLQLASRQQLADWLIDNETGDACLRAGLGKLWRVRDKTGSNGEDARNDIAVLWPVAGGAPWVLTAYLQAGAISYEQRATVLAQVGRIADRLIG
Experimental: Steady state kinetic data were analysed by curve fitting to the Michaeilis-Menten equation using Prism software.

[2] = IC50, purified L2, FC5 substrate

Structure (SMILES) | MIC of aztreonam in the presence of the β-lactamase inhibitor (S. maltophilia; CI-20) | MIC of ceftazidime in the presence of the β-lactamase inhibitor (S. maltophilia; CI-20) | MIC of meropenem in the presence of the β-lactamase inhibitor (S. maltophilia; CI-20) | MIC of aztreonam in the presence of the β-lactamase inhibitor (S. maltophilia; CI-29) | MIC of ceftazidime in the presence of the β-lactamase inhibitor (S. maltophilia; CI-29) | MIC of meropenem in the presence of the β-lactamase inhibitor (S. maltophilia; CI-29) | MIC of aztreonam in the presence of the β-lactamase inhibitor (S. maltophilia; CI-31) | MIC of ceftazidime in the presence of the β-lactamase inhibitor (S. maltophilia; CI-31) | MIC of meropenem in the presence of the β-lactamase inhibitor (S. maltophilia; CI-31) | MIC of aztreonam in the presence of the β-lactamase inhibitor (S. maltophilia; K279a) | MIC of ceftazidime in the presence of the β-lactamase inhibitor (S. maltophilia; K279a) | MIC of meropenem in the presence of the β-lactamase inhibitor (S. maltophilia; K279a) | MIC of aztreonam in the presence of the β-lactamase inhibitor (S. maltophilia; K AMI 32) | MIC of ceftazidime in the presence of the β-lactamase inhibitor (S. maltophilia; K AMI 32) | MIC of meropenem in the presence of the β-lactamase inhibitor (S. maltophilia; K AMI 32) | MIC of aztreonam in the presence of the β-lactamase inhibitor (S. maltophilia; K CAZ 10) | MIC of ceftazidime in the presence of the β-lactamase inhibitor (S. maltophilia; K CAZ 10) | MIC of meropenem in the presence of the β-lactamase inhibitor (S. maltophilia; K CAZ 10) | MIC of aztreonam in the presence of the β-lactamase inhibitor (S. maltophilia; K MOX 8) | MIC of ceftazidime in the presence of the β-lactamase inhibitor (S. maltophilia; K MOX 8) | also measured
NC(=O)[C@@H]1CC[C@@H]2CN1C(=O)N2OS(=O)(=O)O [Avibactam] | 2 µg/mL | 4 µg/mL | 64 µg/mL | 1 µg/mL | 1 µg/mL | 32 µg/mL | ≤ 4 µg/mL | 128 µg/mL | 256 µg/mL | 1 µg/mL | 1 µg/mL | 16 µg/mL | 0.5 µg/mL | 0.5 µg/mL | 16 µg/mL | 1 µg/mL | 8 µg/mL | 64 µg/mL | 0.5 µg/mL | 0.5 µg/mL | MIC of aztreonam in the presence of the β-lactamase inhibitor (S. maltophilia; CI-31, listed as AVI): 4 µg/mL; MIC of meropenem in the presence of the β-lactamase inhibitor (S. maltophilia; K MOX 8): 16 µg/mL; ability to potentiate β-lactams / reverse resistance (in words) (S. maltophilia): reduce ceftazidime MICs against K279a; induction of L1 production (in words) [1]: neither avibactam nor 2 induces L1 to any measurable extent; IC50 (L2; [2]): 14.4 nM
O=C(O)[C@H]1/C(=C/CO)O[C@@H]2CC(=O)N21 [Clavulanic acid] | 4 µg/mL | 16 µg/mL | 32 µg/mL | 1 µg/mL | 4 µg/mL | 16 µg/mL | 2 µg/mL | 128 µg/mL | 256 µg/mL | 1 µg/mL | 4 µg/mL | 32 µg/mL | 0.5 µg/mL | 1 µg/mL | 8 µg/mL | 0.5 µg/mL | 8 µg/mL | 8 µg/mL | 0.25 µg/mL | 1 µg/mL | MIC of meropenem in the presence of the β-lactamase inhibitor (S. maltophilia; K MOX 8): 8 µg/mL; ability to potentiate β-lactams / reverse resistance (in words) (S. maltophilia): does not reduce the MIC of ceftazidime against S. maltophilia K279a; also recorded: reduces the aztreonam MIC against K279a; induction of L1 production (in words) [1]: induced L1 production; IC50 (L2; [2]): 22.3 nM; IC50 (L2; pIC50, purified L2, FC5 substrate): 38.9 nM
